Data published in ChEMBL document CHEMBL1125963, “Triply-convergent synthesis of a homochiral 3,3-dimethyl, 15-cyclohexyl prostacyclin analog” (Bioorg Med Chem Lett, 1991).

Tests used:
Homo sapiens [1] = species: Homo sapiens; test: Concentration required to inhibit collagen-induced platelet aggregation by 50 % (>10 uM); IA means inactive; assay type: functional
Homo sapiens [2] = species: Homo sapiens; test: Concentration required to inhibit collagen-induced platelet aggregation by 50 %; assay type: functional

Row | SMILES | IC50 (Homo sapiens [1]) | IC50 (Homo sapiens [2]) [nM]
1 | O=C(O)COc1cccc2c1C[C@H]1C[C@@H](O)[C@H](CC[C@@H](O)C3CCCCC3)[C@H]1C2 | Not Active | –
2 | CC(C)(C/C=C1\C[C@H]2C[C@@H](O)[C@H](C#C[C@@H](O)C3CCCCC3)[C@H]2C1)CCO | Not Active | –
3 | CC(C)(C/C=C1\C[C@H]2C[C@@H](O)[C@H](C#C[C@H](O)C3CCCCC3)[C@H]2C1)CC(=O)O | – | 480
4 | CCCCC[C@H](O)/C=C/[C@@H]1[C@H]2C/C(=C/CCCC(=O)O)C[C@H]2C[C@H]1O | Not Active | –
5 | CCC#CC[C@H](C)[C@H](O)C#C[C@@H]1[C@H]2C/C(=C/COCC(=O)O)C[C@H]2C[C@H]1O [CICAPROST] | Not Active | –
